Data as given in ChEMBL document CHEMBL1221189, “Structural basis for macrolactonization by the pikromycin thioesterase” (Nat Chem Biol, 2006).
Active and inactive are the calls of the source. The calls are words filed in the database; no cut-off is given here.

Columns and labels:
Streptomyces venezuelae [1] = test: Inactivation of pikromycin thioesterase in Streptomyces venezuelae assessed as rate of enzymatic hydrolysis of p-nitrophenylpropionate after 8 hrs
Streptomyces venezuelae [2] = test: Inactivation of pikromycin thioesterase in Streptomyces venezuelae assessed as rate of enzymatic hydrolysis of p-nitrophenylpropionate at 2 mM; conditions: TDE = time-dependent effect
Streptomyces venezuelae [3] = test: Inactivation of pikromycin thioesterase in Streptomyces venezuelae assessed as rate of enzymatic hydrolysis of p-nitrophenylpropionate at 2 mM after 6 hrs
Streptomyces venezuelae [4] = test: Inactivation of pikromycin thioesterase in Streptomyces venezuelae assessed as rate of enzymatic hydrolysis of p-nitrophenylpropionate at 2 mM after 50 mins

Structure (SMILES)	Activity (Streptomyces venezuelae [1])	Activity (Streptomyces venezuelae [2])	Activity (Streptomyces venezuelae [3])	fold change (FC) (Streptomyces venezuelae [4])
CC[C@H](O)[C@@H](C)C(=O)CP(=O)(Oc1ccccc1)Oc1ccccc1	Active	–	–	–
C[C@@H](CO)C[C@H](C)[C@H](O)[C@@H](C)C(=O)CP(=O)(Oc1ccccc1)Oc1ccccc1	–	tde	Active	2
